# Values quoted from earlier work as cited in patent US12557779B2 (priority 2020, dated 2026).
# Target: cannabinoid receptor type 2 (CB2) (Homo sapiens, UniProt P34972)
# Sequence (P34972 whole entry, species assumed): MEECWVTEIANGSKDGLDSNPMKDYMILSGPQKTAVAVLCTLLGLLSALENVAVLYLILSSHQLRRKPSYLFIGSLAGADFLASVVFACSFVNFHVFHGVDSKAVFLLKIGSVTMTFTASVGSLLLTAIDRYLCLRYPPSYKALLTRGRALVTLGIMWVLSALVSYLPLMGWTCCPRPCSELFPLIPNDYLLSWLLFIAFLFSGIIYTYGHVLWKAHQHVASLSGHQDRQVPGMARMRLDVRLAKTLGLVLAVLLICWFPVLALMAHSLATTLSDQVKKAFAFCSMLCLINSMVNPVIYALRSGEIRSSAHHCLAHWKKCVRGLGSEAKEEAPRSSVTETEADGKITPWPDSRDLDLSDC
smiles,measurement,value
"C=C(C)[C@@H]1CCC(C)=C[C@H]1c1c(O)cc(CCCCC)cc1O [CBD, cannabidiol]",affinity for CB2,minimal affinity
